The compounds below were run against T1, human capsaicin receptor (Homo sapiens, UniProt Q8NER1) (assay: Calcium mobilization assay, determination of antagonist activity). Conditions: capsaicin at EC50; cells expressing human capsaicin receptor; Example 6.
T1 construct: expressed in transfected cells; host or cells: HEK293, stably transfected with pBK-CMV construct
Assay type: cell-based
Summary of the method: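 IC50 is the antagonist level giving a 50% drop in the capsaicin (EC50) calcium signal, read by FLIPR in Fluo-3 AM-loaded stable HEK293 lines bearing full-length human receptor. Compounds at 1-5 µM final were preincubated 0.5-6 h, room temperature, dark, in KRH pH 7.4.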

T1 sequence (Q8NER1 whole entry): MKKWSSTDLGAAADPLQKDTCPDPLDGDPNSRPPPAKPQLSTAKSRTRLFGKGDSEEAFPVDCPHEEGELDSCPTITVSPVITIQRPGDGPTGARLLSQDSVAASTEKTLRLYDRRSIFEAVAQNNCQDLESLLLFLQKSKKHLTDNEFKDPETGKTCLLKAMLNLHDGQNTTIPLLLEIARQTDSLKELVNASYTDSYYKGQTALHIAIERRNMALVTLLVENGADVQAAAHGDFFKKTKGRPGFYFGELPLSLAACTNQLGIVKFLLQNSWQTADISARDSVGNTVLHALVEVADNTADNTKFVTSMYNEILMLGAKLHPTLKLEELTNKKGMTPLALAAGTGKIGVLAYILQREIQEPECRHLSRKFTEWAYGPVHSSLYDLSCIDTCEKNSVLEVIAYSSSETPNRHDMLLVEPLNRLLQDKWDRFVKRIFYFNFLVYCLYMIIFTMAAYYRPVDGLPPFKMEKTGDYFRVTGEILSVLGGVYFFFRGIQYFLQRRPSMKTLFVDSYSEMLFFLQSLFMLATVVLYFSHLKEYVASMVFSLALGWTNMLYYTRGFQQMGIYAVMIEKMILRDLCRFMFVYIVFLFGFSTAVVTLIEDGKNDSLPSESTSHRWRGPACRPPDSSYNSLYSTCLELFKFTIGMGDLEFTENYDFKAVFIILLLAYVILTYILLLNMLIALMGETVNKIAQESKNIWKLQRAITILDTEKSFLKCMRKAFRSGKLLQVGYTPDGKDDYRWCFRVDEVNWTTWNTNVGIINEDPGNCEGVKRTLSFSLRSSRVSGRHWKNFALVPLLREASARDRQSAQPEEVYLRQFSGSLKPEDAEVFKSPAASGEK

Compound	IC50
C[C@@H]1CN(c2ncc(C(=O)N3CCC[C@H]3CO)cc2Cl)CCN1c1cc(-c2ccc(F)cc2)nc(N2CCC[C@H]2CO)n1 [Example 155, (5-Chloro-6-{4-[6-(4-fluoro-phenyl)-2-(2-(S)-hydroxymethyl-pyrrolidin-1-yl)-pyrimidin-4-yl]-3-(R)-methyl-piperazin-1-yl}-pyridin-3-yl)-(2-(S)-hydroxymethyl-pyrrolidin-1-yl)-methanone]	≤ 1000 nM
C[C@@H]1CN(c2ncc(C(=O)O)cc2Cl)CCN1c1cc(-c2ccc(F)cc2)nc(N2CCC[C@H]2CO)n1 [Example 156, 5-Chloro-6-{4-[6-(4-fluoro-phenyl)-2-(2-(S)-hydroxymethyl-pyrrolidin-1-yl)-pyrimidin-4-yl]-3-(R)-methyl-piperazin-1-yl}-nicotinic acid]	≤ 1000 nM
CC(C)N(C)c1nc(-c2ccc(F)cc2)cc(N2CCN(c3ncc(C(=O)O)cc3Cl)C[C@H]2C)n1 [Example 157, 5-Chloro-6-{4-[6-(4-fluoro-phenyl)-2-(isopropyl-methyl-amino)-pyrimidin-4-yl]-3-(R)-methyl-piperazin-1-yl}-nicotinic acid]	≤ 1000 nM
O=C(O)c1cnc(N2CCN(c3cc(-c4ccc(F)cc4)nc(N4CCC[C@H]4CO)n3)CC2)c(Cl)c1 [Example 158, 5-Chloro-6-{4-[6-(4-fluoro-phenyl)-2-(2-(S)-hydroxymethyl-pyrrolidin-1-yl)-pyrimidin-4-yl]-piperazin-1-yl}-nicotinic acid]	≤ 1000 nM
C[C@@H]1COCCN1c1nc(-c2ccc(F)cc2)cc(N2CCN(c3ncc(C(=O)O)cc3Cl)CC2)n1 [Example 159, 5-Chloro-6-{4-[6-(4-fluoro-phenyl)-2-(3-(R)-methyl-morpholin-4-yl)-pyrimidin-4-yl]-piperazin-1-yl}-nicotinic acid]	≤ 1000 nM
CC(C)N(C)c1nc(-c2ccc(F)cc2)cc(N2CCN(c3ncc(C(=O)O)cc3Cl)CC2)n1 [Example 160, 5-Chloro-6-{4-[6-(4-fluoro-phenyl)-2-(isopropyl-methyl-amino)-pyrimidin-4-yl]-piperazin-1-yl}-nicotinic acid]	≤ 1000 nM
Cc1cc(C(=O)O)cnc1N1CCN(c2cc(-c3ccc(F)c(Cl)c3)nc(N(C)C(C)C)n2)CC1 [Example 161, 6-{4-[6-(3-Chloro-4-fluoro-phenyl)-2-(isopropyl-methyl-amino)-pyrimidin-4-yl] - piperazin-1-yl}-5-methyl-nicotinic acid]	≤ 1000 nM
Cc1cc(-c2ncco2)cnc1N1CCN(c2cc(-c3ccc(F)cc3)nc(N3CCC[C@H]3C)n2)[C@H](C)C1 [Example 162, 4-(4-Fluoro-phenyl)-6-[2-(R)-methyl-4-(3-methyl-5-oxazol-2-yl-pyridin-2-yl)-piperazin-1-yl]-2-(2-(R)-methyl-pyrrolidin-1-yl)-pyrimidine]	≤ 1000 nM
C[C@@H]1CN(c2ncc(C(=O)O)cc2Cl)CCN1c1cc(-c2ccccc2)nc(N2CCC[C@H]2CO)n1 [Example 163, 5-Chloro-6-{4-[2-(2-(S)-hydroxymethyl-pyrrolidin-1-yl)-6-phenyl-pyrimidin-4-yl]-3-(R)-methyl-piperazin-1-yl}-nicotinic acid]	≤ 1000 nM
Cc1cc(-c2nnn[nH]2)cnc1N1CCN(c2cc(-c3ccc(F)cc3)nc(N3CCC[C@H]3C)n2)[C@H](C)C1 [Example 164, 4-(4-Fluoro-phenyl)-6-{2-(R)-methyl-4-[3-methyl-5-(1H-tetrazol-5-yl)-pyridin-2-yl]-piperazin-1-yl}-2-(2-(R)-methyl-pyrrolidin-1-yl)-pyrimidine]	≤ 1000 nM
C[C@@H]1CN(c2ncc(C(N)=O)cc2Cl)CCN1c1cc(-c2ccccc2)nc(N2CCC[C@H]2CO)n1 [Example 165, 5-Chloro-6-{4-[2-(2-(S)-hydroxymethyl-pyrrolidin-1-yl)-6-phenyl-pyrimidin-4-yl]-3-(R)-methyl-piperazin-1-yl}-nicotinamide]	≤ 1000 nM
C[C@@H]1CN(c2ncc(C(=O)NCCO)cc2Cl)CCN1c1cc(-c2ccccc2)nc(N2CCC[C@H]2CO)n1 [Example 166, 5-Chloro-N-(2-hydroxy-ethyl)-6-{4-[2-(2-(S)-hydroxymethyl-pyrrolidin-1-yl)-6-phenyl-pyrimidin-4-yl]-3-(R)-methyl-piperazin-1-yl}-nicotinamide]	≤ 1000 nM
C[C@@H]1CN(c2ncc(C(=O)NCCO)cc2Cl)CCN1c1cc(-c2ccccc2)nc(N2CCC[C@H]2C)n1 [Example 167, 5-Chloro-N-(2-hydroxy-ethyl)-6-{3-(R)-methyl-4-[2-(2-(R)-methyl-pyrrolidin-1-yl)-6-phenyl-pyrimidin-4-yl]-piperazin-1-yl}-nicotinamide]	≤ 1000 nM
Cc1cc(-c2ncc[nH]2)cnc1N1CCN(c2cc(-c3ccc(F)cc3)nc(N3CCC[C@H]3C)n2)[C@H](C)C1 [Example 169, 4-(4-Fluoro-phenyl)-6-{4-[5-(1H-imidazol-2-yl)-3-methyl-pyridin-2-yl]-2-(R)-methyl-piperazin-1-yl}-2-(2-(R)-methyl-pyrrolidin-1-yl)-pyrimidine]	≤ 1000 nM
C[C@@H]1CN(c2ncc(CO)cc2Cl)CCN1c1cc(-c2ccc(F)c(Cl)c2)nc(N2CCCCC2)n1 [Example 173, (5-Chloro-6-{4-[6-(3-chloro-4-fluoro-phenyl)-2-piperidin-1-yl-pyrimidin-4-yl]-3-(R)-methyl-piperazin-1-yl}-pyridin-3-yl)-methanol]	≤ 1000 nM
C[C@@H]1CCCN1c1nc(-c2ccc(F)cc2)cc(N2CCN(c3ncc(C(=O)O)cc3C(F)(F)F)CC2)n1 [Example 177, 6-{4-[6-(4-Fluoro-phenyl)-2-(2-(R)-methyl-pyrrolidin-1-yl)-pyrimidin-4-yl]-piperazin-1-yl}-5-trifluoromethyl-nicotinic acid]	≤ 1000 nM

The remaining lines, values ahead:

IC50	Compound
≤ 1000 nM	Cc1ccc(-c2cc(N3CCN(c4ncc(C(=O)O)cc4C)C[C@H]3C)nc(N3CCCC3C)n2)cc1 (stereo partly drawn) [Example 168, 5-Methyl-6-{3-(R)-methyl-4-[2-(2-methyl-pyrrolidin-1-yl)-6-p-tolyl-pyrimidin-4-yl]-piperazin-1-yl}-nicotinic acid]
≤ 1000 nM	Cc1cc(C(=O)O)cnc1N1CCN(c2cc(-c3ccc(F)cc3)nc(N3CCC[C@H]3C)n2)[C@@H](C)C1 [Example 170, 6-{4-[6-(4-Fluoro-phenyl)-2-(2-(R)-methyl-pyrrolidin-1-yl)-pyrimidin-4-yl]-3-(S)-methyl-piperazin-1-yl}-5-methyl-nicotinic acid]
≤ 1000 nM	Cc1ccc(-c2cc(N3CCN(c4ncc(C(=O)NCCO)cc4C)C[C@H]3C)nc(N3CCCC3C)n2)cn1 (stereo partly drawn) [Example 171, N-(2-Hydroxy-ethyl)-5-methyl-6-{3-(R)-methyl-4-[6-(6-methyl-pyridin-3-yl)-2-(2-methyl-pyrrolidin-1-yl)-pyrimidin-4-yl]-piperazin-1-yl}-nicotinamide]
≤ 1000 nM	Cc1cc(C(=O)O)cnc1N1CCN(c2cc(-c3ccc(F)cc3)nc(N3CCC[C@H]3C)c2)[C@H](C)C1 [Example 172, 6-{4-[2-(4-Fluoro-phenyl)-6-(2-(R)-methyl-pyrrolidin-1-yl)-pyridin-4-yl]-3-(R)-methyl-piperazin-1-yl}-5-methyl-nicotinic acid]
≤ 1000 nM	CCOC(=O)c1cnc(N2CCN(c3cc(-c4ccc(F)c(Cl)c4)nc(N4CCC[C@H]4C)n3)C[C@H]2C)c(Cl)c1 [Example 174, 5-Chloro-6-{4-[6-(3-chloro-4-fluoro-phenyl)-2-(2-(R)-methyl-pyrrolidin-1-yl)-pyrimidin-4-yl]-2-(R)-methyl-piperazin-1-yl}-nicotinic acid ethyl ester]
≤ 1000 nM	Cc1cc(C(=O)O)cnc1N1CCN(c2cc(-c3cccc(Cl)c3)nc(N3CCC[C@H]3C)c2)[C@H](C)C1 [Example 175, 6-{4-[2-(3-Chloro-phenyl)-6-(2-(R)-methyl-pyrrolidin-1-yl)-pyridin-4-yl]-3-(R)-methyl-piperazin-1-yl}-5-methyl-nicotinic acid]
≤ 1000 nM	Cc1cc(-c2cc(N3CCN(c4ncc(C(=O)O)cc4C)C[C@H]3C)cc(N3CCC[C@H]3C)n2)ccc1F [Example 176, 6-{4-[2-(4-Fluoro-3-methyl-phenyl)-6-(2-(R)-methyl-pyrrolidin-1-yl)-pyridin-4-yl]-3-(R)-methyl-piperazin-1-yl}-5-methyl-nicotinic acid]
≤ 1000 nM	Cc1cc(C(=O)O)cnc1N1CCN(c2cc(-c3ccc(F)c(Cl)c3)nc(N3CCC[C@H]3C)c2)[C@H](C)C1 [Example 178, 6-{4-[2-(3-Chloro-4-fluoro-phenyl)-6-(2-(R)-methyl-pyrrolidin-1-yl)-pyridin-4-yl]-3-(R)-methyl-piperazin-1-yl}-5-methyl-nicotinic acid]
≤ 1000 nM	C[C@@H]1CN(c2ncc(C(=O)O)cc2C(F)(F)F)CCN1c1cc(-c2ccc(F)cc2)nc(N2CCC[C@H]2C)n1 [Example 179, 6-{4-[6-(4-Fluoro-phenyl)-2-(2-(R)-methyl-pyrrolidin-1-yl)-pyrimidin-4-yl]-3-(R)-methyl-piperazin-1-yl}-5-trifluoromethyl-nicotinic acid]
≤ 1000 nM	Cc1cc(C(=O)O)cnc1N1CCN(c2cc(-c3cncc(Cl)c3)nc(N3CCC[C@H]3C)c2)[C@H](C)C1 [Example 180, 6-{4-[5′-Chloro-6-(2-(R)-methyl-pyrrolidin-1-yl)-[2,3′]bipyridinyl-4-yl]-3-(R)-methyl-piperazin-1-yl}-5-methyl-nicotinic acid]
≤ 1000 nM	Cc1cc(CCO)cnc1N1CCN(c2cc(-c3ccc(F)cc3)nc(N3CCC[C@H]3C)n2)[C@H](C)C1 [Example 181, 2-[6-((3R)-4-{6-(4-fluorophenyl)-2-[(2R)-2-methyl-1-pyrrolidinyl]-4-pyrimidinyl}-3-methyl-1-piperazinyl)-5-methyl-3-pyridinyl]ethanol]
≤ 1000 nM	Cc1cc(OCCO)cnc1N1CCN(c2cc(-c3ccc(F)c(Cl)c3)nc(N3CCC[C@H]3C)n2)[C@H](C)C1 [Example 182, 2-{[6-((3R)-4-{6-(3-chloro-4-fluorophenyl)-2-[(2R)-2-methyl-1-pyrrolidinyl]-4-pyrimidinyl}-3-methyl-1-piperazinyl)-5-methyl-3-pyridinyl]oxy}ethanol]

Reference: patent publication US8334382B2, “Substituted biaryl piperazinyl-pyridine analogues” (Neurogen Corporation, priority 2004, dated 2012)
